Assay results reported in patent US20070292396A1, “COMBINATION THERAPY WITH ONCOLYTIC ADENOVIRUS” (priority 2006, published 2007).
Like-named read-outs stand apart in the source and are kept apart here.

Experiments:
[1] = test system: U-87 MG and U-251 MG human glioma cells; assay: Cell cycle analysis (DNA content, flow cytometry), Delta-24 and CPT-11; assay type: cell-based; details: CPT-11 4 μmol/L, alone or 48 hours after 10 MOIs Delta-24
Description: (§1) Cell cycle analysis. The DNA content was measured in samples of 10^6 cells that had been infected with 10 MOIs of Delta-24 or UVi Delta-24 or had been mock infected. Forty-eight hours later, cultures were treated with CPT-11 (4 μmol/L) or vehicle. Cells were trypsinized 3 to 5 days after drug treatment, fixed in 70% ice-cold ethanol, and incubated with propidium iodide (5 μg/mL) and RNase A (1 μg/mL) for 20 minutes at 37° C. All DNA content measurements were done with an EPICS XL-MCL cytometer (Coulter Corp., Hialeah, Fla.) equipped with an air-cooled argon ion laser emitting 488 nm at 15 mW. A multicycle program (Phoenix Flow System; Phoenix Controls Corp., San Diego, Calif.) was used for data analysis. Cell viability assays. The chemosensitivity of the treated glioma cells was assessed by using the tetrazolium salt 3-(4,5-dimethylthiazol-2-yl)-2,5-diphenyltetrazolium bromide (Sigma-Aldrich) to measure cell viability. For this assay, 2×10^3 cells per well were seeded in 96-well microtiter plates and infected 24 hours later with Delta-24 (at 1, 2.5, 5, or 10 MOs) or Uvi Delta-24 (10 MOs) or were mock infected. […] The plates were then incubated for an additional 4 hours and then read on a Spectramax 190 microplate reader (Molecular Devices, Sunnyvale, Calif.) at a test wavelength of 570 nm.

U-251 MG cells = assay: Cell viability assay (MTT), CPT-11 after adenoviral infection; assay type: cell-based; details: Homo sapiens, U-251, 48 h, CPT-11 added 48 hours later
Description: (§2) Cell cycle analysis. The DNA content was measured in samples of 10^6 cells that had been infected with 10 MOIs of Delta-24 or UVi Delta-24 or had been mock infected. Forty-eight hours later, cultures were treated with CPT-11 (4 μmol/L) or vehicle. Cells were trypsinized 3 to 5 days after drug treatment, fixed in 70% ice-cold ethanol, and incubated with propidium iodide (5 μg/mL) and RNase A (1 μg/mL) for 20 minutes at 37° C. All DNA content measurements were done with an EPICS XL-MCL cytometer (Coulter Corp., Hialeah, Fla.) equipped with an air-cooled argon ion laser emitting 488 nm at 15 mW. A multicycle program (Phoenix Flow System; Phoenix Controls Corp., San Diego, Calif.) was used for data analysis. Cell viability assays. The chemosensitivity of the treated glioma cells was assessed by using the tetrazolium salt 3-(4,5-dimethylthiazol-2-yl)-2,5-diphenyltetrazolium bromide (Sigma-Aldrich) to measure cell viability. For this assay, 2×10^3 cells per well were seeded in 96-well microtiter plates and infected 24 hours later with Delta-24 (at 1, 2.5, 5, or 10 MOs) or Uvi Delta-24 (10 MOs) or were mock infected. Forty-eight hours after adenoviral treatment, the cells were treated with various concentrations of CPT-11. Triplicate wells were used for each condition. Sixteen wells seeded with untreated glioma cells were used as a viability control, and 16 wells containing only complete medium were used as a control for nonspecific dye reduction. Medium was removed 72 hours after drug treatment, and 100 μL 3-(4,5-dimethylthiazol-2-yl)-2,5-diphenyltetrazolium bromide solution (1 mg/mL) was added to each well. The plates were then incubated for an additional 4 hours and then read on a Spectramax 190 microplate reader (Molecular Devices, Sunnyvale, Calif.) at a test wavelength of 570 nm.

U-87 MG cells = assay: as above; assay type: cell-based; details: Homo sapiens, 48 h
Description: as §2

[2] = test system: U-87 MG and U-251 MG glioma cells; assay: Cell viability assay (MTT), CPT-11 and Delta-24, results stated for both cell lines; assay type: cell-based, human
Description: as §1, with “viability. […] Forty-eight hours after adenoviral treatment, the” for “viability. For this assay, 2×10^3”, “cells” for “cells per well”, “were treated” for “were seeded in 96-well microtiter plates and infected 24 hours later”, “with various concentrations of CPT-11. Triplicate wells” for “with Delta-24 (at 1, 2.5, 5, or 10 MOs) or Uvi Delta-24 (10 MOs) or”, “were used for each condition.” for “were mock infected.”

[3] = test system: U-87 MG human glioma xenograft; assay: Intracranial human glioma xenograft, Delta-24/CPT-11 sequential treatment; assay type: in vivo, athymic mice; details: Delta-24 1.5×10^8 viral particles intratumoral day 3; CPT-11 5 mg/kg i.p. days 7, 12, 20; control median survival 27 days
Description: Animal model. To assess the potential therapeutic relevance of the findings from the in vitro studies, we tested the Delta-24/CPT-11 sequential treatment in an in vivo model of a human glioma xenograft implanted intracranially. The U-87 MG cell line was selected as an exemplary cell line because it produces gliomas in nude mice with highly predictable growth kinetics and well-characterized pathologic features (Lal et al., 2000). To perform a reliable multiple-dose experiment, an implantable guide-screw system was developed that allows for multiple, precise intratumoral administrations of a therapeutic agent(s) (Lal et al., 2000) and has been validated for testing the antiglioma effect of Delta-24 (Fueyo et al., 2003). In this study, 5×10^5 cells of the U-87 MG human glioma cell line were engrafted in the caudate nucleus of athymic mice (Harlan- Sprague-Dawley, Inc., Indianapolis, Ind.). On day 3 after cell implantation, animals were treated with a single intratumoral injection of Delta-24 or UVi Delta-24 (1.5×10^8 viral particles in 5 μL). […] H&E-stained slides were analyzed for evidence of tumor, necrosis, and viral nuclear inclusions. […]
Statistical analyses. […] The in vivo anticancer effect of different treatments was assessed by plotting survival curves according to the Kaplan-Meier method, and groups were compared using the log-rank test.

U87-MG xenografts = assay: Intracranial glioma xenograft, ICOVIR-5 in combination with RAD001 or TMZ; assay type: in vivo, athymic mice; details: ICOVIR-5 3×10^7 pfu/mouse intratumoral day 3, 5, 7; RAD001 5 mg/kg/d; TMZ 7.5 mg/kg/5 days; control 30.5 days
Description: Animal Studies. U87 MG human glioma cells (5×10^5) were engrafted into the caudate nucleus of athymic mice using a guide-screw system, as previously described (Lal, 2000). The inventors performed three independent experiments using 10 animals per group in each experiment. On days 3, 5, and 7 after implantation of tumor cells, animals were treated with 5 μl intratumoral injections of ICOVIR-5, PBS or adenovirus control (all 3×10^8 pfu/ml). Animals showing general or local symptoms of toxicity were killed. Surviving animals were killed 140 days after tumor implantation. Brains were then removed, fixed in 4% formaldehyde for 24 hours at room temperature, and embedded in paraffin. Hematoxylin-and-eosin-stained sections were evaluated for evidence of tumor, necrosis, and viral nuclear inclusions. The largest (a) and the smallest (b) diameters of the tumors were measures, and these measurements were used in the calculation of tumor volume using the formula a×b2×0.4 (Attia, 1966). […]
Statistical Analysis. […] Data are expressed as mean±SD or 95% confidence intervals (CIs). The in vivo cytopathic effect of ICOVIR-5 on human glioma xenografts was assessed by plotting survival curves according to the Kaplan-Meier method. […]

U-87 MG cell line = assay: In vitro combination of ICOVIR-5 with TMZ or RAD001; assay type: cell-based, human

Which “cells in the G2-M phase” value [1] does the source give for `CCc1c2c(nc3ccc(OC(=O)N4CCC(N5CCCCC5)CC4)cc13)-c1cc3c(c(=O)n1C2)COC(=O)[C@]3(O)CC` [CPT-11, irinotecan] here?
Its value is > 55 % of the cells in culture.

And the IC50 (U-251 MG cells; read-out: IC50 dose of CPT-11, U-251 MG cells infected with Delta-24 at 10 MOIs)?
Its IC50 is 1000 nM.

And the IC50 (U-251 MG cells; read-out: IC50 dose of CPT-11, UVi Delta-24-infected U-251 MG cells)?
Its IC50 is 7200 nM.

And the IC50 (U-87 MG cells; read-out: IC50 dose of CPT-11, U-87 MG cells infected with Delta-24 at 10 MOIs, CPT-11 added 48 hours later)?
Its IC50 is 1500 nM.

What about the IC50 (U-87 MG cells; read-out: IC50 dose of CPT-11, U-87 MG cells infected with UVi Delta-24, CPT-11 added 48 hours later) of the same molecule?
Its IC50 is 3400 nM.

And the IC50 ([2]; Homo sapiens, read-out: IC50 for CPT-11, both U-87 MG and U-251 MG cells infected with 2 MOIs of Delta-24)?
Its IC50 is 2500 nM.

And the “inhibition of cell proliferation” value ([2]; both cell lines, CPT-11 alone)?
The value was “inhibited cell proliferation in a concentration dependent fashion”.

What about the “extension of survival (average) over control” value [3] of the same molecule?
Its value is 4 days.

What does the source list for `CO[C@H]1C[C@@H]2CC[C@@H](C)[C@@](O)(O2)C(=O)C(=O)N2CCCC[C@H]2C(=O)O[C@H]([C@H](C)C[C@@H]2CC[C@@H](OCCO)[C@H](OC)C2)CC(=O)[C@H](C)/C=C(\C)[C@@H](O)[C@@H](OC)C(=O)[C@H](C)C[C@H](C)/C=C/C=C/C=C/1C` [RAD001]?
mean survival (U87-MG xenografts): 49 days; effect of drug on adenoviral replication in vitro (fiber expression, western blot and RT-QT-PCR) (U-87 MG cell line): neither RAD001 nor TMZ suppressed adenoviral replication in vitro

With `Cn1nnc2c(C(N)=O)ncn2c1=O` [TMZ, temozolomide] as the molecule, how does the mean survival (U87-MG xenografts) read?
Its mean survival is 35.5 days.
